Experiments:
EBC-1 [1] = assay: Cytotoxicity against human EBC1 cells assessed as decrease in cell viability after 72 hrs by Cell Titer-Glo assay; type: functional
PC-3 [2] = assay: Cytotoxicity against human PC3 cells assessed as decrease in cell viability after 72 hrs by Cell Titer-Glo assay; type: functional
MKN-45 = assay: Cytotoxicity against human MKN45 cells assessed as decrease in cell viability after 72 hrs by Cell Titer-Glo assay; type: functional
[3] = biological target: T1, Hepatocyte growth factor receptor (Homo sapiens, UniProt P08581); assay: Inhibition of human GST-tagged c-MET preincubated for 20 mins followed by [33P]-ATP addition measured after 2 hrs by Hot-SpotSM kinase assay
EBC-1 [4] = assay: Cytotoxicity against human EBC1 cells assessed as decrease in cell viability at 25 uM after 72 hrs by Cell Titer-Glo assay relative to control; type: functional
PC-3 [5] = assay: Cytotoxicity against human PC3 cells assessed as decrease in cell viability at 25 uM after 72 hrs by Cell Titer-Glo assay relative to control; type: functional
[6] = biological target: Platelet-derived growth factor receptor alpha (Homo sapiens) (UniProt P16234); assay: Inhibition of human GST-tagged PDGFRalpha at 3 uM preincubated for 20 mins followed by [33P]-ATP addition measured after 2 hrs by Hot-SpotSM kinase assay
[7] = system: Hepatocyte growth factor receptor (Homo sapiens), P08581 [Y1230H]; assay: Inhibition of human GST-tagged c-MET Y1230H mutant at 3 uM preincubated for 20 mins followed by [33P]-ATP addition measured after 2 hrs by Hot-SpotSM kinase assay
HFL1 = assay: Cytotoxicity against human HFL1 cells assessed as decrease in cell viability at 50 uM after 72 hrs by Cell Titer-Glo assay; type: cell-based; conditions: hfl1, 72 h
[8] = system: Hepatocyte growth factor receptor (Homo sapiens), P08581 [Y1230C]; assay: Inhibition of human GST-tagged c-MET Y1230C mutant at 3 uM preincubated for 20 mins followed by [33P]-ATP addition measured after 2 hrs by Hot-SpotSM kinase assay
[9] = biological target: Epidermal growth factor receptor (Homo sapiens) (UniProt P00533); assay: Inhibition of human GST-tagged EGFR at 3 uM preincubated for 20 mins followed by [33P]-ATP addition measured after 2 hrs by Hot-SpotSM kinase assay
[10] = biological target: ALK tyrosine kinase receptor (Homo sapiens) (UniProt Q9UM73); assay: Inhibition of human GST-tagged ALK at 3 uM preincubated for 20 mins followed by [33P]-ATP addition measured after 2 hrs by Hot-SpotSM kinase assay
[11] = biological target: Vascular endothelial growth factor receptor 2 (Homo sapiens) (UniProt P35968); assay: Inhibition of human GST-tagged VEGFR2 at 3 uM preincubated for 20 mins followed by [33P]-ATP addition measured after 2 hrs by Hot-SpotSM kinase assay
[12] = biological target: T1, Hepatocyte growth factor receptor; assay: Inhibition of human GST-tagged c-MET at 3 uM preincubated for 20 mins followed by [33P]-ATP addition measured after 2 hrs by Hot-SpotSM kinase assay
[13] = biological target: T1, Hepatocyte growth factor receptor; assay: Inhibition of HGF-induced c-MET phosphorylation at Tyr1234/1235 in human MKN45 cells after 1 hr by Western blot analysis; type: cell-based
[14] = biological target: T2, Receptor-type tyrosine-protein kinase FLT3 (Homo sapiens, UniProt P36888); assay: Inhibition of human GST-tagged FLT3 preincubated for 20 mins followed by [33P]-ATP addition measured after 2 hrs by Hot-SpotSM kinase assay
T2 sequence (P36888 whole entry): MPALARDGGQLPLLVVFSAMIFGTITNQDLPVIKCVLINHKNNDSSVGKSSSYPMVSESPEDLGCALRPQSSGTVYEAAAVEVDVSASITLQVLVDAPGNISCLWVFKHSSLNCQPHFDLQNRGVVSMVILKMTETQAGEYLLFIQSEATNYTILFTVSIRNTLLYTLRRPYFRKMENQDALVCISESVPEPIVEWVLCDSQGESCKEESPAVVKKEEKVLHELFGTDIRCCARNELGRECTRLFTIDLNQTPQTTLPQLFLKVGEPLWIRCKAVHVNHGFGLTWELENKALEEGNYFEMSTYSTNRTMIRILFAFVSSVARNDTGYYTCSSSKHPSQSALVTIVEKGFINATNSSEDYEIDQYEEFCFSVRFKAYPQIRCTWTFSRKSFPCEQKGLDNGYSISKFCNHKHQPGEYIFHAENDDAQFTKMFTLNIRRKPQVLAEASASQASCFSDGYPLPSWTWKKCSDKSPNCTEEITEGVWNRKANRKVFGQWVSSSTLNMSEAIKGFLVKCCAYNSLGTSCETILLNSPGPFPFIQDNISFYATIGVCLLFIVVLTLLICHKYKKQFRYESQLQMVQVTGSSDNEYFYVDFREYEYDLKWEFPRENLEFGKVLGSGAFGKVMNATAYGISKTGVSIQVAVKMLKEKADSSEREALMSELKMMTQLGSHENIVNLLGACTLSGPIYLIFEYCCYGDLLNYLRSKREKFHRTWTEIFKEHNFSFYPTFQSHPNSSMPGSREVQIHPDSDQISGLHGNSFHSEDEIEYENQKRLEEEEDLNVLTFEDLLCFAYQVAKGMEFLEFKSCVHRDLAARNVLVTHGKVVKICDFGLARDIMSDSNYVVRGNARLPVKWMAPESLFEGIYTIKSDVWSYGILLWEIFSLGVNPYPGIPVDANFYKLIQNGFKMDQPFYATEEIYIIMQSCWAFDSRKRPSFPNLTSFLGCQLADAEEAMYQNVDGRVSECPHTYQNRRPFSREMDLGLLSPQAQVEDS

[15] = biological target: Macrophage-stimulating protein receptor (Homo sapiens) (UniProt Q04912); assay: Inhibition of human GST-tagged RON at 3 uM preincubated for 20 mins followed by [33P]-ATP addition measured after 2 hrs by Hot-SpotSM kinase assay
[16] = biological target: Proto-oncogene tyrosine-protein kinase receptor Ret (Homo sapiens) (UniProt P07949); assay: Inhibition of human GST-tagged RET at 3 uM preincubated for 20 mins followed by [33P]-ATP addition measured after 2 hrs by Hot-SpotSM kinase assay
[17] = biological target: Receptor-type tyrosine-protein kinase FLT3 (Homo sapiens) (UniProt P36888); assay: Inhibition of human GST-tagged FLT3 at 3 uM preincubated for 20 mins followed by [33P]-ATP addition measured after 2 hrs by Hot-SpotSM kinase assay

T1 sequence (P08581 whole entry): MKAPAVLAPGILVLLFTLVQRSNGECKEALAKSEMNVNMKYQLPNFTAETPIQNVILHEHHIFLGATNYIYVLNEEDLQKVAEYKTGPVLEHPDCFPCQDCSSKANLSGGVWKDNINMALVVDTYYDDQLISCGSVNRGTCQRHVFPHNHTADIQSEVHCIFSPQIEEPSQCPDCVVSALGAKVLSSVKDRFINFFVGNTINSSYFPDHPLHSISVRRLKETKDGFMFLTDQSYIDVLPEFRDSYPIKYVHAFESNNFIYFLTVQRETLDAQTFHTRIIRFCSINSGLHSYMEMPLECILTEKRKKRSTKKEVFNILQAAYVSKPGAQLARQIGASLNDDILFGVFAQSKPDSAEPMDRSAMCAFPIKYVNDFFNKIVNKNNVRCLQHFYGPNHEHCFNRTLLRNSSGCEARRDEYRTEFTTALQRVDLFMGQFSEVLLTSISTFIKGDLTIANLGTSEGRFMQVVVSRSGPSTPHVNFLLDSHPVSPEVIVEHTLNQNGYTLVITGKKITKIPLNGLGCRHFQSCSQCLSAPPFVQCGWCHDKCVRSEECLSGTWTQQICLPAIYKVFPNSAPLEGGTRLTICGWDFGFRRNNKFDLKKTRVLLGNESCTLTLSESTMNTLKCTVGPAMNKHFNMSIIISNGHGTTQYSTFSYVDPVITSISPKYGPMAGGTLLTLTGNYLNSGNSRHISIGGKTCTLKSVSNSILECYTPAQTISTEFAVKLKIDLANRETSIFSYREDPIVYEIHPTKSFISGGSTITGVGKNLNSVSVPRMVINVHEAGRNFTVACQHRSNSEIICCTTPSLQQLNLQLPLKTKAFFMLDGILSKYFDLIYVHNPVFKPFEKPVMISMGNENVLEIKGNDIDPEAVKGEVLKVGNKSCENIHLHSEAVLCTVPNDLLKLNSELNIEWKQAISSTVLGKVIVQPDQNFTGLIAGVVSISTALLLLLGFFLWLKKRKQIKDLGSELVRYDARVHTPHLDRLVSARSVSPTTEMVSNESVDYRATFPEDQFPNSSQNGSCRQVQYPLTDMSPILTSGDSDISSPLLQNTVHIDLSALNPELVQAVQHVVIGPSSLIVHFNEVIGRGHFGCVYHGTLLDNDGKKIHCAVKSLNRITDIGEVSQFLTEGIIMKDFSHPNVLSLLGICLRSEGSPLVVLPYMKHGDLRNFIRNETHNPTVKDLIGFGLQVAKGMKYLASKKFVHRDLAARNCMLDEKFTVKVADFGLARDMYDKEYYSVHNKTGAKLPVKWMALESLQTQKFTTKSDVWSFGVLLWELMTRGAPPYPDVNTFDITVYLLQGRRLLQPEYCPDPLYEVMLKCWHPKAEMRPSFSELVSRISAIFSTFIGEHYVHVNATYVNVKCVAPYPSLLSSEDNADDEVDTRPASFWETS
Chain of Hepatocyte growth factor receptor (Homo sapiens), P08581 [Y1230H] (P08581 whole entry Y1230H): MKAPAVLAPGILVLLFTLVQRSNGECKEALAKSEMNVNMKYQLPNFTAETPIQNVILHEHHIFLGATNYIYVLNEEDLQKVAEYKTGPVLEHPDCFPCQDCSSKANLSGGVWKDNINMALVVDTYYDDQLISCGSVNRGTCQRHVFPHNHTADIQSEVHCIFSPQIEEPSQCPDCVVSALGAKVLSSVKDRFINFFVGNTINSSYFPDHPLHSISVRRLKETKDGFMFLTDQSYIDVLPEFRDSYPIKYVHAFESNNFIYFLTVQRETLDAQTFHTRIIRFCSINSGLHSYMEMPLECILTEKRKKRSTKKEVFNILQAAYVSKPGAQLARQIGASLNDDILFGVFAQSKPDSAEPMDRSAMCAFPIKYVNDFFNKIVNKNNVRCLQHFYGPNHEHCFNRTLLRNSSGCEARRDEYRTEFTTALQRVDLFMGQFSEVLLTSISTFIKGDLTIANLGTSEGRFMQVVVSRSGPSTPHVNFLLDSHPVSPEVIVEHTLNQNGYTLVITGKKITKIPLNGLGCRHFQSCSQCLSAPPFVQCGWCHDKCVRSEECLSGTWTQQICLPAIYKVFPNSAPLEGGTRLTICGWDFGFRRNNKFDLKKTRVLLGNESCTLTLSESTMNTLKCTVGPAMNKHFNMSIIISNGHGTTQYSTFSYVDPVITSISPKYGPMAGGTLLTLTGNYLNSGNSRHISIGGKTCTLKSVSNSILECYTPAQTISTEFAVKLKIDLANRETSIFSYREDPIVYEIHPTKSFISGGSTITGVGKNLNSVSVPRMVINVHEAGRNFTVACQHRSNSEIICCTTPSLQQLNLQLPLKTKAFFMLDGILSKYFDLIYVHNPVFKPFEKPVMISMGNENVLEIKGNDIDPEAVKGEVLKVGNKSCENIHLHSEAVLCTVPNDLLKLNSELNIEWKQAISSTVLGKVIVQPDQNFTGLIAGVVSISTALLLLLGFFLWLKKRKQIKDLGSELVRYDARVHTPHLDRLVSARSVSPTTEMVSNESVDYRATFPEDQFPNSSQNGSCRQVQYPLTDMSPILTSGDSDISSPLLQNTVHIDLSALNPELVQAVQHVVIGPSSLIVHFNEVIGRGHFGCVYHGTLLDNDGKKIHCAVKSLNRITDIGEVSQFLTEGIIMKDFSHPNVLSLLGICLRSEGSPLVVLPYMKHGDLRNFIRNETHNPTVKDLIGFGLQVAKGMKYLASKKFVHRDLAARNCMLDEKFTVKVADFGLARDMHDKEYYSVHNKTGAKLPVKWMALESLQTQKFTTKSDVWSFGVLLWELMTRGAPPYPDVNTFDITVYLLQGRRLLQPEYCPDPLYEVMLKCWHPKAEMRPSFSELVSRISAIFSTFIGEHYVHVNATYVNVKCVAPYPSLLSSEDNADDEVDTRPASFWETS
Chain of Epidermal growth factor receptor (Homo sapiens) (P00533 whole entry): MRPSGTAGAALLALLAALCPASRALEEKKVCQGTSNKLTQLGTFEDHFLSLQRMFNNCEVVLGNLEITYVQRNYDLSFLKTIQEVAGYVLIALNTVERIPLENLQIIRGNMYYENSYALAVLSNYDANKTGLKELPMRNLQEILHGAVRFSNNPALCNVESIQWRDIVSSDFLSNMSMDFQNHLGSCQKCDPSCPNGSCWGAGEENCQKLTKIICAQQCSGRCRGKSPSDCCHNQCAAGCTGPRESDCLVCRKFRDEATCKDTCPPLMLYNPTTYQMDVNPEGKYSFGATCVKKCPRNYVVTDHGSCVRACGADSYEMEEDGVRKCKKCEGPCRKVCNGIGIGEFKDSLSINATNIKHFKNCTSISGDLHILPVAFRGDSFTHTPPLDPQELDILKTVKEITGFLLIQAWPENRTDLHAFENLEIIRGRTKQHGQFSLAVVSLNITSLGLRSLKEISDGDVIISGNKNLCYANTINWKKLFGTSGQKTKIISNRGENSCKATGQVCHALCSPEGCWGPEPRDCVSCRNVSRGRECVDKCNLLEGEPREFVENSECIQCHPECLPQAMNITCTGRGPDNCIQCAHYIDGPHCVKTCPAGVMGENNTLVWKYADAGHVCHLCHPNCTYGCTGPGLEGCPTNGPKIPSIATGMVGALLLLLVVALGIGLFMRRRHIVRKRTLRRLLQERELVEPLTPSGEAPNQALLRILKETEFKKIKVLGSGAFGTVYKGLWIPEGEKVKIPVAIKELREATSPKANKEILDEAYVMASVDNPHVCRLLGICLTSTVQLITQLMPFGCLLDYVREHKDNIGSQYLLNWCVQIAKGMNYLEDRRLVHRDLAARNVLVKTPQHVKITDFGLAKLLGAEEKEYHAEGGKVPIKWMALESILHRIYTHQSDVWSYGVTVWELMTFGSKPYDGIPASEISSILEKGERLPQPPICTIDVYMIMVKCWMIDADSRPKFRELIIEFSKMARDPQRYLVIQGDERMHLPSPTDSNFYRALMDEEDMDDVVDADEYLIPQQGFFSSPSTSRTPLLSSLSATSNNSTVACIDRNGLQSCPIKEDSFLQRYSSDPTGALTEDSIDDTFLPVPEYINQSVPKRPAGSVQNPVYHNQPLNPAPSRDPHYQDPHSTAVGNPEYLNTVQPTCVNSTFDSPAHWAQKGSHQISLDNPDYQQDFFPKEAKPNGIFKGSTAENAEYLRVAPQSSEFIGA
Chain of Platelet-derived growth factor receptor alpha (Homo sapiens) (P16234 whole entry): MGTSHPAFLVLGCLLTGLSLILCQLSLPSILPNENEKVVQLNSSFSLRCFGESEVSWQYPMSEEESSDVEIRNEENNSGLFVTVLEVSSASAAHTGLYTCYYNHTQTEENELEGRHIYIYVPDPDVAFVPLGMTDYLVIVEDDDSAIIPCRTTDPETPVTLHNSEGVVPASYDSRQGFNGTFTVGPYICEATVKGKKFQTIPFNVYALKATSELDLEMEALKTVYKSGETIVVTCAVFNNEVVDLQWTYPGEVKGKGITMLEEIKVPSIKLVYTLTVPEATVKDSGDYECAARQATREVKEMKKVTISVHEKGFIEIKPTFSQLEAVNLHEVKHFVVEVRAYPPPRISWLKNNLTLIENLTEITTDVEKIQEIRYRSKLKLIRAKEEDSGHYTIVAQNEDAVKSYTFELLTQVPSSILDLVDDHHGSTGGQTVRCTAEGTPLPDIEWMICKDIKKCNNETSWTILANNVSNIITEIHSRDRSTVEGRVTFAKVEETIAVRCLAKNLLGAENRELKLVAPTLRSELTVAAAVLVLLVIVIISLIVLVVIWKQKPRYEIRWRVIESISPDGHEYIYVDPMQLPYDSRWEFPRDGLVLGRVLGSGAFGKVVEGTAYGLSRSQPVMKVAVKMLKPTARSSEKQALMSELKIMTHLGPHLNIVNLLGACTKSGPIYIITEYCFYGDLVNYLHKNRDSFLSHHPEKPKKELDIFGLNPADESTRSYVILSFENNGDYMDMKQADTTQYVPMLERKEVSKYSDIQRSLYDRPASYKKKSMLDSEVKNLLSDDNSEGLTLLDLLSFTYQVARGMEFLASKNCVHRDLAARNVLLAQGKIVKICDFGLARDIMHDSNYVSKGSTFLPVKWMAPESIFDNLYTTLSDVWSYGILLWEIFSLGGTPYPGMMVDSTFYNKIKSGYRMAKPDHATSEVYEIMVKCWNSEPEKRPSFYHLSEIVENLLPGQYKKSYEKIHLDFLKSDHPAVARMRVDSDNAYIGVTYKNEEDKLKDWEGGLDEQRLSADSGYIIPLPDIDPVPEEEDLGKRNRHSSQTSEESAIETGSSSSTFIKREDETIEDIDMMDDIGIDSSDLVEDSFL

IC50 [3] [µM] | Compound | Activity (EBC-1 [1]) [µM] | Activity (PC-3 [2]) [µM] | Activity (MKN-45) [µM] | also measured
– | CC(=O)N1CCC(Nc2ccc(-c3n[nH]c4c3CN(S(=O)(=O)c3c(Cl)cccc3Cl)CC4)cc2)CC1 | 11.478 | >25 | 12.02 | –
> 50 | CC(=O)N1CCC(Nc2ccc(-c3n[nH]c4c3CN(S(=O)(=O)c3cccc5ccccc35)CC4)cc2)CC1 | – | – | – | –
– | CC(=O)N1CCC(Nc2ccc(-c3n[nH]c4c3CN(S(=O)(=O)c3cccs3)CC4)cc2)CC1 | – | >25 | >25 | Activity (EBC-1 [4]): 57.52%
0.068 | CN1CCC(Nc2ccc(-c3n[nH]c4c3CN(S(=O)(=O)c3c(Cl)cccc3Cl)CC4)cc2)CC1 | 3.481 | – | 1.187 | Activity (PC-3 [5]): 60.89%; inhibition [6]: 41.1%; inhibition [7]: 7.16%; Activity (HFL1): 40.6%; inhibition [8]: 14.9%; inhibition [9]: -5.68%; inhibition [10]: 55.6%; inhibition [11]: 26.9%; inhibition [12]: 17.6%; inhibition [13]: Dose-dependent effect; IC50 [14]: 124 nM; inhibition [15]: 27.4%; inhibition [16]: 33.5%; inhibition [17]: 97.8%
– | O=C(NCCO)c1ccc(-c2n[nH]c3c2CN(S(=O)(=O)c2c(Cl)cccc2Cl)CC3)cc1 | >25 | >25 | >25 | –
> 50 | CC(=O)N1CCC(Nc2ccc(-c3n[nH]c4c3CN(S(=O)(=O)c3cccc5cccnc35)CC4)cc2)CC1 | – | – | – | –
– | C[C@@H](Oc1cc(-c2cnn(C3CCNCC3)c2)cnc1N)c1c(Cl)ccc(F)c1Cl [CRIZOTINIB] | 0.013 | 2.244 | 0.022 | Activity (HFL1): 39.4%
> 50 | CC(=O)N1CCC(Nc2ccc(-c3n[nH]c4c3CN(S(=O)(=O)c3ccc(C)cc3)CC4)cc2)CC1 | – | – | – | –
– | CN1CCN(C(=O)c2ccc(-c3n[nH]c4c3CN(S(=O)(=O)c3c(Cl)cccc3Cl)CC4)cc2)CC1 | 8.278 | – | 12.057 | –
